Data from PubChem BioAssay (NCI).
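Results reflect a 48-hour exposure of cells in 96-well plates to compound at five concentrations. GI50 is the concentration that inhibits growth by half. TGI: total growth inhibition.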

Columns and labels:
Assay in all cases: inhibition of tumour cell growth, NCI panel, 48 h
A549 NSCLC = tested on: A549 NSCLC
SN12C renal = tested on: SN12C renal
MDA-MB-435 = tested on: MDA-MB-435
HOP-92 NSCLC = tested on: HOP-92 NSCLC
UO-31 renal = tested on: UO-31 renal
NCI-H522 lung = tested on: NCI-H522 lung
NCI-H23 lung = tested on: NCI-H23 lung
HT29 colon = tested on: HT29 colon
HCT-116 colon = tested on: HCT-116 colon
IGROV1 ovarian = tested on: IGROV1 ovarian

Row | SMILES | TGI (A549 NSCLC) [µM] | TGI (SN12C renal) [µM] | TGI (MDA-MB-435) [µM] | TGI (HOP-92 NSCLC) [µM] | TGI (UO-31 renal) [µM] | TGI (NCI-H522 lung) [µM] | TGI (NCI-H23 lung) [µM] | TGI (HT29 colon) [µM] | TGI (HCT-116 colon) [µM] | TGI (IGROV1 ovarian) [µM] | GI50 (A549 NSCLC) [µM] | GI50 (SN12C renal) [µM] | GI50 (MDA-MB-435) [µM] | GI50 (HOP-92 NSCLC) [µM] | GI50 (UO-31 renal) [µM] | GI50 (NCI-H522 lung) [µM] | GI50 (NCI-H23 lung) [µM] | GI50 (HT29 colon) [µM] | GI50 (HCT-116 colon) [µM] | GI50 (IGROV1 ovarian) [µM]
1 | CC(C)(C)n1c(=O)n2c(-c3ccccc3)c(-c3ccccc3)n2c1=O | > 100 | > 100 | > 100 | > 100 | > 100 | 56.5 | > 100 | > 100 | > 100 | > 100 |  |  |  |  |  |  |  |  |  | 
2 | COc1ccc(NC(=S)c2ccc([N+](=O)[O-])o2)cc1 | 11.1 | 4.85 | 5.66 | 30.6 | 5.09 | 2.92 | 5.52 | 3.7 | 3.12 | 8.56 |  |  |  |  |  |  |  |  |  | 
3 | Cc1cn([C@H]2C[C@@H](N3C(=O)c4ccccc4C3=O)[C@@H](CO[Si](C)(C)C(C)(C)C)O2)c(=O)[nH]c1=O | > 100 | > 100 | > 100 | > 100 | > 100 | > 100 | > 100 | 51.7 | > 100 | > 100 |  |  |  |  |  |  |  |  |  | 
4 | NCCc1ccc(S(=O)(=O)O)cc1[N+](=O)[O-] | > 100 | > 100 | > 100 | > 100 | > 100 | > 100 | > 100 | > 100 | > 100 | > 100 |  |  |  |  |  |  |  |  |  | 
5 | Clc1ccc(C(OCn2ccnc2)c2nc3ccccc3[nH]2)c(Cl)c1 (stereo not given) | > 100 | > 100 | > 100 | 10.1 | 92.1 | > 100 | > 100 | > 100 | > 100 | > 100 |  |  |  |  |  |  |  |  |  | 
6 | COc1cc(CCN)c(OC)c(OC)c1 | > 100 | > 100 | 61.1 | > 100 | > 100 | > 100 | > 100 | > 100 | > 100 | > 100 |  |  |  |  |  |  |  |  |  | 
7 | C(=C\c1cc[n+](CCc2ccccc2)cc1)/c1ccccc1 | 51.8 | 16.4 | 18.4 | > 100 | > 100 | 45.4 | 43.7 | 35.1 | 65.4 | > 100 |  |  |  |  |  |  |  |  |  | 
8 | N/C(=N\N=C\c1nc2ccccc2o1)c1cnccn1 | > 100 | > 100 | > 100 | > 100 | > 100 | > 100 | > 100 | > 100 | > 100 | > 100 |  |  |  |  |  |  |  |  |  | 
9 | COc1ccc(OC)c(/C=C2/C(=O)N=C(NC(C)=O)N2C)c1 | > 100 | > 100 | > 100 | > 100 | > 100 | > 100 | > 100 | > 100 | > 100 | > 100 |  |  |  |  |  |  |  |  |  | 
10 | CCN(C(=O)N[C@@H](CC(C)C)C(=O)NCC(=O)OC)c1ccccc1 | > 100 | > 100 | > 100 | > 100 | > 100 | > 100 | > 100 | > 100 | > 100 | > 100 |  |  |  |  |  |  |  |  |  | 
11 | C[C@H]1CCC/C=C/[C@@H]2C[C@H](OC(=O)CN(C)C)C[C@H]2[C@H](O)/C=C/C(=O)O1 | > 100 | 6.45 | > 100 | > 56.1 | 1.48 | 1.39 | 0.909 | 1.07 | 0.746 | > 29.7 |  |  |  |  |  |  |  |  |  | 
12 | NC(CCC(=O)O)C(=O)NC(Cc1ccc(N(CCCl)CCCl)cc1)C(=O)O (stereo not given) | > 100 | > 100 | > 100 | > 100 | > 100 | > 100 | > 100 | > 100 | > 100 | > 100 |  |  |  |  |  |  |  |  |  | 
13 | COC(=O)C(C)NP(=O)(OCc1cccc(Cn2cnc3c(N)ncnc32)c1)Oc1ccccc1 (stereo not given) | > 100 | > 100 | > 100 | > 100 | > 100 | > 100 | > 100 | > 100 | > 100 | > 100 | > 100 | > 100 | > 100 | 54.1 | > 100 | 36 | 66 | > 100 | 47 | > 100
14 | CC(C)C(=O)Cc1ccc2ccccc2n1 | > 100 | > 100 | > 100 | > 100 | > 100 | > 100 | > 100 | > 100 | > 100 | > 100 |  |  |  |  |  |  |  |  |  | 
15 | N#CC1=C(S)N(C2OC(CO)C(O)C(O)C2O)C(c2ccccc2)=CC1c1ccco1 (stereo not given) | > 100 | > 100 | > 100 | > 100 | > 100 | > 100 | > 100 | > 100 | > 100 | > 100 |  |  |  |  |  |  |  |  |  | 
16 | C=CCN(c1cc(O)c2c(c(C)cn2S(=O)(=O)c2ccccc2)c1[N+](=O)[O-])S(C)(=O)=O | > 100 | > 100 | 74.7 | > 100 | > 100 | > 100 | > 100 | > 100 | > 100 | > 100 |  |  |  |  |  |  |  |  |  | 
